In BindingDB's records for patent WO2021069705 (MONTE ROSA THERAPEUTICS AG, 2021):
pIC50: −log10 of the molar value.

Target: Protein cereblon (Homo sapiens, UniProt Q96SW2)
Assay: Protocol for Fluorescent Polarization assay
Experimental: Compound activity was monitored in a fluorescence polarization (FP) homogeneous assay using 1 -[5-({2-[2-(2-{[2-(2,6-dioxopiperidin-3-yl)-1 ,3-dioxo-2,3-dihydro-1 H-isoindol-4-yl]oxy}acetamido)ethoxy]ethyl}carbamoyl)pentyl]-3,3-dimethyl-2-[(1 E,3E)-5-[(2E)-1 ,3,3-trimethyl-5-sulfo-2,3-dihydro-1 H-indol-2-ylidene]penta-1 ,3-dien-1 -yl]-3H-indol-1 -ium-5-sulfonate as a fluorescent probe. Unless otherwise stated, all reagents were purchased from Sigma Aldrich. Enzymatic reactions were conducted in Perkin-Elmer Black 384 well ProxiPlate Plus (catalogue no. 6008269) in 10 μL total volume. Full length wild-type cereblon CRBN (80.0 nM, 10 μL) was incubated in assay buffer containing 20 mM HEPES (pH 8.0), 1 50 NaCl, 0.5 mM TCEP and 0.05% Tween 20 in the presence or absence of compound (300 nL). Inhibitors were stored as 10 mM DMSO stocks in an inert environment (low humidity, dark, low oxygen, room temperature) using the Storage Pod System. Compounds and DMSO were dispensed using the Echo E5XX (Labcyte Inc. USA) to give concentrations from 300 to 0.937 or 3000 to 9.3 nM in a 1 2 data point curve. […] FP was measured after a period of 1 2 hours using a Pherastar plate reader (BMG Labtech, Germany) exciting at 590 nm and measuring the amount of parallel and perpendicular light at 675 nm. […]

Sequence of Protein cereblon (Q96SW2 whole entry): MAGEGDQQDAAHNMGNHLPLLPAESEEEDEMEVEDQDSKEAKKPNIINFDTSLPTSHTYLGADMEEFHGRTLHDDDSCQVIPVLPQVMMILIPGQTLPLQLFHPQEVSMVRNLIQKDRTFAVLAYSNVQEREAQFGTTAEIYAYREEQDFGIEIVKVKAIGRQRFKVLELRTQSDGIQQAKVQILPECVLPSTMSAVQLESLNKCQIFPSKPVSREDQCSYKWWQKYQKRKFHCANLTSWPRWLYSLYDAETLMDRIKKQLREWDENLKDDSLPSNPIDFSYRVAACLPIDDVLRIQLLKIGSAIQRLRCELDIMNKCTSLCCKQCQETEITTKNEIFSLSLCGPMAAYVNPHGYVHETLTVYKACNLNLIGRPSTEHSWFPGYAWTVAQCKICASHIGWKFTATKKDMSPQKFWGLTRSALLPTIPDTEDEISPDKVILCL

O=C1CCC(N2Cc3ccc(CNC(=O)Nc4ccc(Br)cc4)cc3C2=O)C(=O)N1 (stereo unspecified) [WO2021069705, Compound 9]
pIC50: 6.21
